Organism: Rattus norvegicus
Assay: Open TG-GATES - Regimen: Single
Assay type: toxicity, organism-based, Sprague-Dawley
Design: regimen Single, gender Male, age 6 weeks
Settings: in vivo, po, 24 h, route gavage; for Bas / Eos / Hb / Ht / Lym / MCH / MCHC / MCV / Mono / Neu / Plat / RBC / Ret / WBC: tissue Blood; for KIDNEY_L / KIDNEY_R / KIDNEY_TOTAL: tissue Kidney; for LIVER: tissue Liver; for A/G / ALP / ALT / AST / BUN / CRE / Ca / Cl / DBIL / GLC / IP / K / LDH / Na / PL / RALB / TBIL / TC / TG / TP / gamma-GTP: tissue Plasma

SMILES: O=[N+]([O-])c1ccc2c(c1)Cc1ccccc1-2 [2-NITROFLUORENE]
- TERMINAL_BW (0 mg/kg, dose level Control): 226.9 g
- Bas (0 mg/kg, dose level Control): 0%
- Eos (0 mg/kg, dose level Control): 0.8%
- Hb (0 mg/kg, dose level Control): 12.7 g/dL
- Ht (0 mg/kg, dose level Control): 38.9%
- Lym (0 mg/kg, dose level Control): 78.4%
- MCH (0 mg/kg, dose level Control): 20.5 pg
- MCHC (0 mg/kg, dose level Control): 32.5%
- MCV (0 mg/kg, dose level Control): 63.1 fL
- Mono (0 mg/kg, dose level Control): 3.2%
- Neu (0 mg/kg, dose level Control): 16.8%
- Plat (0 mg/kg, dose level Control): 121 x10_4/uL
- RBC (0 mg/kg, dose level Control): 618 x10_4/ul
- Ret (0 mg/kg, dose level Control): 8.6%
- WBC (0 mg/kg, dose level Control): 96.1 x10_2/uL
- KIDNEY_L (0 mg/kg, dose level Control): 0.9 g
- KIDNEY_R (0 mg/kg, dose level Control): 0.9 g
- KIDNEY_TOTAL (0 mg/kg, dose level Control): 1.9 g
- LIVER (0 mg/kg, dose level Control): 10.2 g
- A/G (0 mg/kg, dose level Control): 1.1
- ALP (0 mg/kg, dose level Control): 1444.8 IU/L
- ALT (0 mg/kg, dose level Control): 41.6 IU/L
- AST (0 mg/kg, dose level Control): 69.6 IU/L
- BUN (0 mg/kg, dose level Control): 16.6 mg/dL
- CRE (0 mg/kg, dose level Control): 0.2 mg/dL
- Ca (0 mg/kg, dose level Control): 10.7 mg/dL
- Cl (0 mg/kg, dose level Control): 104.2 meq/L
- DBIL (0 mg/kg, dose level Control): 0.006 mg/dL
- GLC (0 mg/kg, dose level Control): 193.2 mg/dL
- IP (0 mg/kg, dose level Control): 6.8 mg/dL
- K (0 mg/kg, dose level Control): 4.1 meq/L
- LDH (0 mg/kg, dose level Control): 153.2 IU/L
- Na (0 mg/kg, dose level Control): 141.1 meq/L
- PL (0 mg/kg, dose level Control): 149 mg/dL
- RALB (0 mg/kg, dose level Control): 2.8 g/dL
- TBIL (0 mg/kg, dose level Control): 0 mg/dL
- TC (0 mg/kg, dose level Control): 79.8 mg/dL
- TG (0 mg/kg, dose level Control): 105.8 mg/dL
- TP (0 mg/kg, dose level Control): 5.4 g/dL
- gamma-GTP (0 mg/kg, dose level Control): 0.7 IU/L
- TERMINAL_BW (100 mg/kg, dose level Low): 220.2 g
- Bas (100 mg/kg, dose level Low): 0%
- Eos (100 mg/kg, dose level Low): 0.2%
- Hb (100 mg/kg, dose level Low): 12.8 g/dL
- Ht (100 mg/kg, dose level Low): 39.6%
- Lym (100 mg/kg, dose level Low): 79.6%
- MCH (100 mg/kg, dose level Low): 20.4 pg
- MCHC (100 mg/kg, dose level Low): 32.5%
- MCV (100 mg/kg, dose level Low): 62.8 fL
- Mono (100 mg/kg, dose level Low): 3.6%
- Neu (100 mg/kg, dose level Low): 15.4%
- Plat (100 mg/kg, dose level Low): 123.5 x10_4/uL
- RBC (100 mg/kg, dose level Low): 631.6 x10_4/ul
- Ret (100 mg/kg, dose level Low): 8.1%
- WBC (100 mg/kg, dose level Low): 113.4 x10_2/uL
- KIDNEY_L (100 mg/kg, dose level Low): 0.9 g
- KIDNEY_R (100 mg/kg, dose level Low): 1 g
- KIDNEY_TOTAL (100 mg/kg, dose level Low): 1.9 g
- LIVER (100 mg/kg, dose level Low): 10.1 g
- A/G (100 mg/kg, dose level Low): 1.2
- ALP (100 mg/kg, dose level Low): 1937 IU/L
- ALT (100 mg/kg, dose level Low): 39.8 IU/L
- AST (100 mg/kg, dose level Low): 82.2 IU/L
- BUN (100 mg/kg, dose level Low): 15.6 mg/dL
- CRE (100 mg/kg, dose level Low): 0.2 mg/dL
- Ca (100 mg/kg, dose level Low): 10.5 mg/dL
- Cl (100 mg/kg, dose level Low): 105.3 meq/L
- DBIL (100 mg/kg, dose level Low): 0.02 mg/dL
- GLC (100 mg/kg, dose level Low): 174.6 mg/dL
- IP (100 mg/kg, dose level Low): 6.7 mg/dL
- K (100 mg/kg, dose level Low): 4.3 meq/L
- LDH (100 mg/kg, dose level Low): 259.2 IU/L
- Na (100 mg/kg, dose level Low): 139.7 meq/L
- PL (100 mg/kg, dose level Low): 124.6 mg/dL
- RALB (100 mg/kg, dose level Low): 2.8 g/dL
- TBIL (100 mg/kg, dose level Low): 0.012 mg/dL
- TC (100 mg/kg, dose level Low): 64.2 mg/dL
- TG (100 mg/kg, dose level Low): 64.7 mg/dL
- TP (100 mg/kg, dose level Low): 5.2 g/dL
- gamma-GTP (100 mg/kg, dose level Low): 0.7 IU/L
- TERMINAL_BW (300 mg/kg, dose level Middle): 216.7 g
- Bas (300 mg/kg, dose level Middle): 0%
- Eos (300 mg/kg, dose level Middle): 0.4%
- Hb (300 mg/kg, dose level Middle): 13.1 g/dL
- Ht (300 mg/kg, dose level Middle): 40.4%
- Lym (300 mg/kg, dose level Middle): 73.4%
- MCH (300 mg/kg, dose level Middle): 20.4 pg
- MCHC (300 mg/kg, dose level Middle): 32.6%
- MCV (300 mg/kg, dose level Middle): 62.6 fL
- Mono (300 mg/kg, dose level Middle): 6%
- Neu (300 mg/kg, dose level Middle): 18.2%
- Plat (300 mg/kg, dose level Middle): 124.8 x10_4/uL
- RBC (300 mg/kg, dose level Middle): 645 x10_4/ul
- Ret (300 mg/kg, dose level Middle): 8.6%
- WBC (300 mg/kg, dose level Middle): 91 x10_2/uL
- KIDNEY_L (300 mg/kg, dose level Middle): 1 g
- KIDNEY_R (300 mg/kg, dose level Middle): 1 g
- KIDNEY_TOTAL (300 mg/kg, dose level Middle): 1.9 g
- LIVER (300 mg/kg, dose level Middle): 9.6 g
- A/G (300 mg/kg, dose level Middle): 1.2
- ALP (300 mg/kg, dose level Middle): 1406.4 IU/L
- ALT (300 mg/kg, dose level Middle): 35 IU/L
- AST (300 mg/kg, dose level Middle): 83.2 IU/L
- BUN (300 mg/kg, dose level Middle): 16.3 mg/dL
- CRE (300 mg/kg, dose level Middle): 0.2 mg/dL
- Ca (300 mg/kg, dose level Middle): 10.2 mg/dL
- Cl (300 mg/kg, dose level Middle): 104.9 meq/L
- DBIL (300 mg/kg, dose level Middle): 0.02 mg/dL
- GLC (300 mg/kg, dose level Middle): 165.6 mg/dL
- IP (300 mg/kg, dose level Middle): 7.7 mg/dL
- K (300 mg/kg, dose level Middle): 4.5 meq/L
- LDH (300 mg/kg, dose level Middle): 203 IU/L
- Na (300 mg/kg, dose level Middle): 139.3 meq/L
- PL (300 mg/kg, dose level Middle): 115.2 mg/dL
- RALB (300 mg/kg, dose level Middle): 2.8 g/dL
- TBIL (300 mg/kg, dose level Middle): 0.022 mg/dL
- TC (300 mg/kg, dose level Middle): 61.2 mg/dL
- TG (300 mg/kg, dose level Middle): 47.3 mg/dL
- TP (300 mg/kg, dose level Middle): 5.2 g/dL
- gamma-GTP (300 mg/kg, dose level Middle): 0.7 IU/L
- TERMINAL_BW (1000 mg/kg, dose level High): 211.8 g
- Bas (1000 mg/kg, dose level High): 0%
- Eos (1000 mg/kg, dose level High): 0.4%
- Hb (1000 mg/kg, dose level High): 13.6 g/dL
- Ht (1000 mg/kg, dose level High): 41.6%
- Lym (1000 mg/kg, dose level High): 79.4%
- MCH (1000 mg/kg, dose level High): 21 pg
- MCHC (1000 mg/kg, dose level High): 32.7%
- MCV (1000 mg/kg, dose level High): 64.2 fL
- Mono (1000 mg/kg, dose level High): 4%
- Neu (1000 mg/kg, dose level High): 15.6%
- Plat (1000 mg/kg, dose level High): 127.8 x10_4/uL
- RBC (1000 mg/kg, dose level High): 647.8 x10_4/ul
- Ret (1000 mg/kg, dose level High): 8.3%
- WBC (1000 mg/kg, dose level High): 75.6 x10_2/uL
- KIDNEY_L (1000 mg/kg, dose level High): 0.9 g
- KIDNEY_R (1000 mg/kg, dose level High): 0.9 g
- KIDNEY_TOTAL (1000 mg/kg, dose level High): 1.8 g
- LIVER (1000 mg/kg, dose level High): 9.6 g
- A/G (1000 mg/kg, dose level High): 1.1
- ALP (1000 mg/kg, dose level High): 1276 IU/L
- ALT (1000 mg/kg, dose level High): 29.8 IU/L
- AST (1000 mg/kg, dose level High): 74.4 IU/L
- BUN (1000 mg/kg, dose level High): 12.8 mg/dL
- CRE (1000 mg/kg, dose level High): 0.1 mg/dL
- Ca (1000 mg/kg, dose level High): 10.3 mg/dL
- Cl (1000 mg/kg, dose level High): 104.8 meq/L
- DBIL (1000 mg/kg, dose level High): 0.008 mg/dL
- GLC (1000 mg/kg, dose level High): 183.8 mg/dL
- IP (1000 mg/kg, dose level High): 7.6 mg/dL
- K (1000 mg/kg, dose level High): 4.1 meq/L
- LDH (1000 mg/kg, dose level High): 313.2 IU/L
- Na (1000 mg/kg, dose level High): 141 meq/L
- PL (1000 mg/kg, dose level High): 112.4 mg/dL
- RALB (1000 mg/kg, dose level High): 2.9 g/dL
- TBIL (1000 mg/kg, dose level High): 0.01 mg/dL
- TC (1000 mg/kg, dose level High): 57.2 mg/dL
- TG (1000 mg/kg, dose level High): 47.6 mg/dL
- TP (1000 mg/kg, dose level High): 5.5 g/dL
- gamma-GTP (1000 mg/kg, dose level High): 0.8 IU/L

— ChEMBL document CHEMBL3885861, “Open TG-GATES”
